# Test results reported in patent publication US20220257491A1, “Prebiotic Oral Care Compositions and Methods” (Colgate-Palmolive Company, priority 2021, published 2022).
# Marks after values point to notes of the source that are not given here.
# Experiments:
# Type in all cases: cell-based
# [1] = test system: F. nucleatum; assay: Multi-species biofilm composition: absolute abundance of F. nucleatum; conditions: mean±SD n=3
# Description: (§1) Biofilms are grown vertically on Calcium Deficient Hydroxyapatite (CAD-HA) disks (Hitemco Medical, Old Bethpage, USA) using the Amsterdam Active Adhesion model. Biofilms are allowed to establish during 24 h (37° C., 170 rpm) under micro-aerophilic conditions (6% O2, 7% CO2, 7% H2, 80% N2). After this 24 h, disks are rinsed 3 times a day for 3 minutes (RT, 250 rpm), for 3 consecutive days, by transferring the lid containing the disks to a new 24-well plate containing 2 mL/well of the appropriate substrate solution. As a negative control, PBS (pH 5.7) without substrate supplementation is used. After each rinsing step, disks are shortly dip-rinsed in a new 24-well plate containing fresh modified BHI medium (2 mL/well) to remove remaining substrate traces. Subsequently, the lid is transferred to another 24-well plate containing fresh modified BHI medium (2 mL/well), followed by incubation (micro-aerophilic, 37° C., 170 rpm) until the next rinsing step.
# (§2) NADM, N-acetyl-D-glucosamine (“NADG”) and D-(+)-mannose are selected to determine their effects on multi-species biofilm composition. […] decrease in absolute numbers in at least four of the pathogenic bacterial species tested in the assay, compared to the control, the results of which are described in Table 1 below. Absolute abundances of bacterial species are shown as mean±SD (n=3) logarithmic values of the genome equivalents per millilitre (log(Geq/mL)).
# [2] = test system: P. gingivalis; assay: Multi-species biofilm composition: absolute abundance of P. gingivalis; conditions: mean±SD n=3
# Description: as §1, §2
# [3] = test system: S. mutans; assay: Multi-species biofilm composition: absolute abundance of S. mutans; conditions: for Absolute abundance S. mutans: mean±SD n=3
# Description: as §1
# (§3) NADM, N-acetyl-D-glucosamine (“NADG”) and D-(+)-mannose are selected to determine their effects on multi-species biofilm composition. Repeated rinsing of the biofilms with the substrates at a concentration of 1M results in a significant decrease in absolute numbers in at least four of the pathogenic bacterial species tested in the assay, compared to the control, the results of which are described in Table 1 below. Absolute abundances of bacterial species are shown as mean±SD (n=3) logarithmic values of the genome equivalents per millilitre (log(Geq/mL)).
# [4] = test system: A. naeslundii; assay: Multi-species biofilm composition: absolute abundance of A. naeslundii; conditions: mean±SD n=3
# Description: as §1, §3
# [5] = test system: A. viscosus; assay: Multi-species biofilm composition: absolute abundance of A. viscosus; conditions: mean±SD n=3
# Description: as §1, §2
# [6] = test system: S. gordonii; assay: Multi-species biofilm composition: absolute abundance of S. gordonii; conditions: mean±SD n=3
# Description: as §1, §3
# [7] = test system: S. oralis; assay: Multi-species biofilm composition: absolute abundance of S. oralis; conditions: for Absolute abundance S. oralis: mean±SD n=3
# Description: as §1, §2
# [8] = test system: S. salivarius; assay: Multi-species biofilm composition: absolute abundance of S. salivarius; conditions: mean±SD n=3
# Description: as §1, §3
# [9] = test system: V. parvula; assay: Multi-species biofilm composition: absolute abundance of V. parvula; conditions: mean±SD n=3
# Description: as §1, §3
# [10] = test system: P. gingivalis virulence genes; assay: Multi-species biofilm virulence gene expression, SYBR RT-qPCR: P. gingivalis; conditions: relative to control, 2^-ΔΔCt, geometric mean n=3
# Description: as §1
# (§4) The expression of 33 virulence genes from 4 periodontal pathogens is analysed to evaluate the relative virulence of the substrate-treated biofilms. For all three substrates, virulence gene expression is determined relatively to the control, and these values are also compared between substrates when this is relevant (Tables 5a-5d).
# [11] = test system: F. nucleatum virulence genes; assay: Multi-species biofilm virulence gene expression, SYBR RT-qPCR: F. nucleatum; conditions: relative to control (=1), 2^-ΔΔCt, geometric mean n=3
# Description: as §1, §4
# [12] = test system: P. intermedia virulence genes; assay: Multi-species biofilm virulence gene expression, SYBR RT-qPCR: P. intermedia; conditions: for Fold Change in virulence gene expression: DnaJ / Fold Change in virulence gene expression: DnaK / Fold Change in virulence gene expression: ECF / Fold Change in virulence gene expression: GroES / Fold Change in virulence gene expression: HtpG / Fold Change in virulence gene expression: KpsD / Fold Change in virulence gene expression: adpc / Fold Change in virulence gene expression: clpB / Fold Change in virulence gene expression: inpA / Fold Change in virulence gene expression: phg: relative to control (=1), 2^-ΔΔCt, geometric mean n=3
# Description: as §1, §4
# [13] = test system: human oral keratinocytes (HOK-18A); assay: IL-8 levels in supernatants of keratinocyte cultures exposed to substrate-treated biofilms; conditions: for IL-8 levels in supernatants of HOK-18A cultures: mean±SD n=3
# Description: Cultures of immortalized human oral keratinocytes (HOK-18A) are grown. The relative inflammatory potential of the substrate-treated multi-species biofilms is evaluated by analyzing the expression of five inflammatory mediator genes in human oral keratinocytes (HOKs) exposed to the substrate-treated biofilms. […] The IL-8 levels in the cellular supernatant are determined as well. RNA is converted to cDNA and relative expression of inflammatory mediator genes is determined as described above with respect to the cellular housekeeping gene (3-actin.
# Table 7: IL-8 levels detected in the supernatants of human oral keratinocytes (HOK-18A) cultures exposed to substrate-treated multi-species biofilms are shown as mean±SD (n=3) values (pg/mL). All substrates are dissolved in PBS at a concentration of 1 M (upper part) or 1% (w/v) (lower part). Values between 0 and 1 represent relative downregulation, values >1 represent relative upregulation. […] For such values, statistically significant differences between two experimental conditions are marked with ‘#1’ (vs. NADM), ‘#2’ (vs. NADG), ‘#3’ (vs. D-(+)-mannose) (P<0.05).
structure (smiles),measurement,setting,value
"CC(=O)N[C@@H]1C(O)O[C@H](CO)[C@@H](O)[C@@H]1O (stereo partly drawn) [NADM, N-acetyl-D-mannosamine]",Absolute abundance Fn (F. nucleatum),[1]; substrate 1%(w/v) in PBS,9.60 ± 0.22 log(Geq/mL)
same,Absolute abundance Fn (F. nucleatum),[1]; substrate 1 M in PBS,8.14 ± 0.44 log(Geq/mL)
same,Absolute abundance Pg (P. gingivalis),[2]; substrate 1%(w/v) in PBS,7.06 ± 0.30 log(Geq/mL)
same,Absolute abundance Pg (P. gingivalis),[2]; substrate 1 M in PBS,5.42 ± 0.23 log(Geq/mL)
same,Decrease in S. mutans vs control,[3]; substrate 1%(w/v),0.5 log(Geq/mL)
same,Absolute abundance S. mutans,[3]; substrate 1%(w/v) in PBS,7.01 ± 0.05 log(Geq/mL)
same,Change in S. mutans numbers compared to the control,[3]; substrate 1 M,−1.2 log(Geq/mL)
same,Absolute abundance S. mutans,[3]; substrate 1 M in PBS,7.41 ± 0.44 log(Geq/mL)
same,Absolute abundance An (A. naeslundii),[4]; substrate 1%(w/v) in PBS,7.60 ± 0.22 log(Geq/mL)
same,Absolute abundance An (A. naeslundii),[4]; substrate 1 M in PBS,6.73 ± 0.39 log(Geq/mL)
same,Absolute abundance Av (A. viscosus),[5]; substrate 1%(w/v) in PBS,7.73 ± 0.09 log(Geq/mL)
same,Absolute abundance Av (A. viscosus),[5]; substrate 1 M in PBS,8.35 ± 0.30 log(Geq/mL)
same,Absolute abundance S. gord. (S. gordonii),[6]; substrate 1%(w/v) in PBS,8.40 ± 0.10 log(Geq/mL)
same,Absolute abundance S. gord. (S. gordonii),[6]; substrate 1 M in PBS,8.94 ± 0.32 log(Geq/mL)
same,Absolute abundance S. oralis,[7]; substrate 1%(w/v) in PBS,7.49 ± 0.30 log(Geq/mL)
same,Change in S. oralis numbers compared to the control,[7]; substrate 1 M,+2.5 log(Geq/mL)
same,Difference in S. oralis numbers compared to NADG,[7]; substrate 1 M,+1.5 log(Geq/mL)
same,Absolute abundance S. oralis,[7]; substrate 1 M in PBS,"9.46 ± 0.24*^, #2 log(Geq/mL)"
same,Absolute abundance S. sal. (S. salivarius),[8]; substrate 1%(w/v) in PBS,2.90 ± 0.36 log(Geq/mL)
same,Absolute abundance S. sal. (S. salivarius),[8]; substrate 1 M in PBS,3.34 ± 0.55 log(Geq/mL)
same,Absolute abundance Vp (V. parvula),[9]; substrate 1%(w/v) in PBS,10.05 ± 0.17 log(Geq/mL)
same,Absolute abundance Vp (V. parvula),[9]; substrate 1 M in PBS,10.76 ± 0.09 log(Geq/mL)
same,Fold Change in virulence gene expression: fimA,[10]; substrate 1%,1.07 fold
same,Fold Change in virulence gene expression: kgp,[10]; substrate 1%,3.46 fold
same,Fold Change in virulence gene expression: partC,[10]; substrate 1%,0.62 fold
same,Fold Change in virulence gene expression: rgpA,[10]; substrate 1%,0.88 fold
same,Fold Change in virulence gene expression: fimA,[10]; substrate 1M,0.50 fold
same,Fold Change in virulence gene expression: kgp,[10]; substrate 1M,0.82 fold
same,Fold Change in virulence gene expression: partC,[10]; substrate 1M,0.20 fold
same,Fold Change in virulence gene expression: rgpA,[10]; substrate 1M,0.43 fold
same,Fold Change in virulence gene expression: ABC transp. perm.,[11]; substrate 1%,0.39 fold
same,Fold Change in virulence gene expression: EF-G,[11]; substrate 1%,0.11 fold
same,Fold Change in virulence gene expression: but.-coA transf.,[11]; substrate 1%,0.38 fold
same,Fold Change in virulence gene expression: hemin receptor,[11]; substrate 1%,0.10 fold
same,Fold Change in virulence gene expression: hemolysin,[11]; substrate 1%,0.55 fold
same,Fold Change in virulence gene expression: ompA,[11]; substrate 1%,0.75 fold
same,Fold Change in virulence gene expression: transposase,[11]; substrate 1%,0.75 fold
same,Fold Change in virulence gene expression: ABC transp. perm.,[11]; substrate 1M,2.46 fold
same,Fold Change in virulence gene expression: EF-G,[11]; substrate 1M,1.37 fold
same,Fold Change in virulence gene expression: but.-coA transf.,[11]; substrate 1M,0.76 fold
same,Fold Change in virulence gene expression: hemin receptor,[11]; substrate 1M,2.81 fold
same,Fold Change in virulence gene expression: hemolysin,[11]; substrate 1M,1.05 fold
same,Fold Change in virulence gene expression: ompA,[11]; substrate 1M,1.27 fold
same,Fold Change in virulence gene expression: transposase,[11]; substrate 1M,1.03 fold
same,"Relative P. intermedia virulence gene expression, downregulation","[12]; substrate 1%(w/v), D-(+)-mannose for 3 genes",2.5- to 7.7 fold
same,Fold Change in virulence gene expression: DnaJ,[12]; substrate 1%,0.19 fold
same,Fold Change in virulence gene expression: DnaK,[12]; substrate 1%,0.31 fold
same,Fold Change in virulence gene expression: ECF,[12]; substrate 1%,0.13 fold
same,Fold Change in virulence gene expression: GroES,[12]; substrate 1%,0.51 fold
same,Fold Change in virulence gene expression: HtpG,[12]; substrate 1%,0.21 fold
same,Fold Change in virulence gene expression: KpsD,[12]; substrate 1%,0.35 fold
same,Fold Change in virulence gene expression: adpc,[12]; substrate 1%,0.21 fold
same,Fold Change in virulence gene expression: clpB,[12]; substrate 1%,0.40 fold
same,Fold Change in virulence gene expression: inpA,[12]; substrate 1%,0.28 fold
same,Fold Change in virulence gene expression: phg,[12]; substrate 1%,0.26 fold
same,Fold Change in virulence gene expression: DnaJ,[12]; substrate 1M,0.15 fold
same,Fold Change in virulence gene expression: DnaK,[12]; substrate 1M,0.70 fold
same,Fold Change in virulence gene expression: ECF,[12]; substrate 1M,0.55 fold
same,Fold Change in virulence gene expression: GroES,[12]; substrate 1M,0.45 fold
same,Fold Change in virulence gene expression: HtpG,[12]; substrate 1M,0.35 fold
same,Fold Change in virulence gene expression: KpsD,[12]; substrate 1M,0.41 fold
same,Fold Change in virulence gene expression: adpc,[12]; substrate 1M,0.70 fold
same,Fold Change in virulence gene expression: clpB,[12]; substrate 1M,0.40 fold
same,Fold Change in virulence gene expression: inpA,[12]; substrate 1M,0.64 fold
same,Fold Change in virulence gene expression: phg,[12]; substrate 1M,0.15 fold
same,IL-8 levels in supernatants of HOK-18A cultures,[13]; biofilm rinsed with substrate 1%(w/v),30.32 ± 6.26 pg/mL
same,IL-8 levels in supernatants of HOK-18A cultures,[13]; biofilm rinsed with substrate 1M,0.59 ± 0.61 pg/mL
same,Reduced IL-8 levels compared to the control,[13]; substrate 1%(w/v),2.4 fold
